Test results reported in US20190062699A1, “HIGHLY FUNCTIONAL HEPATOCYTE AND USE THEREOF” (GAIA BioMedicine Inc., priority 2016, published 2019).
“Also recorded” adds a separate entry of the source.

System: iPS-HEP cells
Assay: ammonia metabolism test (Ammonia Test Wako) on iPS-derived hepatocytes
Type: cell-based, human
Conditions: compounds in differentiation induction medium III (FH1 final 50 μM, FPH1 final 20 μM); compared with use of feeder cells (HUVECs, MSCs); 2 mM ammonia, 24 hours
Method: When HUVEC and MSC are used as feeder cells, perform co-culture as required as adhesion culture (refer to Non-patent document 1 cited below). • 2.11. Indicate the date, name of the cells, etc. on the culture plate, and carry out culture in an incubator at 37° C. and 5% CO2. • 2.12. Carry out an operation of removing the supernatant, and adding flesh medium III on every other day up to Day 17. • [Day 17: Completion of CiPS-Hep->ammonia metabolism test] • 1. Prepare HBM (cocktail)+aqueous ammonia (henceforth referred to as ammonia medium) in a volume of 1 ml/well×2.
• 2. Remove the culture supernatant, and wash the cell surfaces once with 1 ml of HBM, and once with ammonia HBM. • 3. […]
• 4. […] During the centrifugation, turn on the power sources of microplate reader and personal computer, and choose Tecan i-control. • 8. […] Remove a lid, set the plate on the microplate reader, and sway the plate (double click “Shaking”, choose “10 sec” and “Normal”, and click “Start”). • 11. […] Set the plate on the microplate reader, and sway the plate. • 13. […] Set the plate on the microplate reader, and sway the plate. • 15. […] Finely wipe the bottom of the plate, and set the plate on the microplate reader with adjusting the upper left corner. • 18. Measure absorbance (620 or 630 nm) (double click “Measure” of “Absorbance”, select the well for measurement at 620 nm in “Details”, and click “Start”).

| SMILES | ammonia-metabolizing function-enhancing effect |
| --- | --- |
| CC(=O)Nc1ccc(Cc2ccc(NC(C)=O)cc2)cc1 [FH1, N,N′-(methylenebis)(4,1-phenylene)diacetamide] | higher ammonia-metabolizing function-enhancing effect compared with use of feeder cells; also recorded: higher metabolism-enhancing effect compared with use of feeder cells |
| Cc1ccc(Cl)cc1N(CC(=O)Nc1c(F)cccc1F)S(C)(=O)=O [FPH1, 2-N-(5-chloro-2-methylphenyl)(methylsulfonamido)-N-(2,6-difluorophenyl)acetamide] | higher ammonia-metabolizing function-enhancing effect compared with use of feeder cells; also recorded: higher metabolism-enhancing effect compared with use of feeder cells |
